Measurements taken from patent US9370185B2, “Herbicidal composition” (ISHIHARA SANGYO KAISHA, LTD., priority 2011, dated 2016).

Experiments:
Format in all cases: in vivo
[1] = system: wild oat (Avena fatua L.); assay: Test Example 6: soil treatment, wild oat, visual growth inhibition; conditions: 24 h, soil treatment one day after sowing, 28th day after treatment, read-out: Growth Inhibition Rate of Wild oat (%) Measured Value
Procedure: (§1) Growth inhibition rate (%)=weed control rate of from 0% (equivalent to the non-treated plot) to 100% (complete kill)
(§2) Upland field soil was put into a 1/300,000-ha pot, and seeds of wild oat (Avena fatua L.) were sown. After one day, prescribed amounts of SHIBAGEN DF (trade name) and a wettable powder containing pyroxasulfone as an active ingredient were diluted with water (corresponding to 1,000 L/ha) and applied for soil treatment by a small sprayer.
On the 28th day after the treatment, the state of growth of the wild oat was visually observed and examined.

[2] = system: black nightshade (Solanum nigrum L.); assay: Test Example 5: soil treatment, black nightshade, visual growth inhibition; conditions: 24 h, soil treatment one day after sowing, 14th day after treatment, read-out: Growth Inhibition Rate of Black nightshade (%) Measured Value
Procedure: as §1
as §2, with “black nightshade (Solanum nigrum” for “wild oat (Avena fatua”
On the 14th day after the treatment, the state of growth of the black nightshade was visually observed and examined.

[3] = system: velvetleaf (Abutilon theophrasti Medic.); assay: Test Example 3: soil treatment, velvetleaf, visual growth inhibition; conditions: 24 h, soil treatment one day after sowing, 21st day after treatment, read-out: Growth Inhibition Rate of Velvetleaf (%) Measured Value
Procedure: as §1
as §2, with “1/1,000,000-ha” for “1/300,000-ha”, “velvetleaf (Abutilon theophrasti Medic.)” for “wild oat (Avena fatua L.)”
On the 21st day after the treatment, the state of growth of the velvetleaf was visually observed and examined.

[4] = system: black nightshade (Solanum nigrum L.); assay: Test Example 1: foliar treatment of black nightshade, visual growth inhibition; conditions: foliar treatment at 2.3 to 2.5 leaf stage, 21st day after treatment, read-out: Growth Inhibition Rate of Black nightshade (%) Measured Value
Procedure: Upland field soil was put into a 1/1,000,000-ha pot, and seeds of black nightshade (Solanum nigrum L.) were sown. When the black nightshade reached the 2.3 to 2.5 leaf stage, prescribed amounts of a water dispersible granules containing flazasulfuron as an active ingredient (trade name: SHIBAGEN DF, manufactured by Ishihara Sangyo Kaisha, Ltd.) and a wettable powder containing pyroxasulfone as an active ingredient were diluted with water (corresponding to 1,000 L/ha) containing 0.05% by volume of an agricultural adjuvant (trade name: KUSARINOH, manufactured by NIHON NOHYAKU Co., Ltd.) and applied for foliar treatment by a small sprayer.
On the 21st day after the treatment, the state of growth of the black nightshade was visually observed and examined, followed by evaluation according to the following evaluation criteria. A growth inhibition rate (%) (measured value) and a growth inhibition rate (%) (calculated value) as calculated according to the foregoing Colby's method are shown in Table 1.
as §1

[5] = system: crabgrass (Digitaria sanguinalis (L.) Scop.); assay: Test Example 2: foliar treatment of crabgrass, visual growth inhibition; conditions: foliar treatment at 4.0 to 4.5 leaf stage, 21st day after treatment, read-out: Growth Inhibition Rate of Crabgrass (%) Measured Value
Procedure: as §1
Upland field soil was put into a 1/1,000,000-ha pot, and seeds of crabgrass (Digitaria sanguinalis (L.) Scop.) were sown. When the crabgrass reached the 4.0 to 4.5 leaf stage, prescribed amounts of SHIBAGEN DF (trade name) and a wettable powder containing pyroxasulfone as an active ingredient were diluted with water (corresponding to 1,000 L/ha) containing 0.05% by volume of KUSARINOH (trade name) and applied for foliar treatment by a small sprayer.
On the 21st day after the treatment, the state of growth of the crabgrass was visually observed and examined.

[6] = system: velvetleaf (Abutilon theophrasti Medic.); assay: Test Example 7: soil treatment, velvetleaf, visual growth inhibition; conditions: 24 h, soil treatment one day after sowing, 28th day after treatment, read-out: Growth Inhibition Rate of Velvetleaf (%) Measured Value
Procedure: as §1
as §2, with “velvetleaf (Abutilon theophrasti Medic.)” for “wild oat (Avena fatua L.)”, “an oil-based suspension” for “SHIBAGEN DF”, “name: ONEHOPE NYUZAI, manufactured by Ishihara Sangyo Kaisha, Ltd.) containing nicosulfuron as an active ingredient” for “name)”
On the 28th day after the treatment, the state of growth of the velvetleaf was visually observed and examined.

[7] = system: common lambsquarters (Chenopodium album L.); assay: Test Example 4: soil treatment, common lambsquarters, visual growth inhibition; conditions: 24 h, soil treatment one day after sowing, 27th day after treatment, read-out: Growth Inhibition Rate of Common lambsquarters (%) Measured Value
Procedure: as §1
Upland field soil was put into a 1/1,000,000-ha pot, and seeds of common lambsquarters (Chenopodium album L.) were sown. After one day, prescribed amounts of a water-based suspension containing nicosulfuron as an active ingredient and a wettable powder containing pyroxasulfone as an active ingredient were diluted with water (corresponding to 300 L/ha) and applied for soil treatment by a small sprayer.
On the 27th day after the treatment, the state of growth of the common lambsquarters was visually observed and examined.

SMILES	inhibition at 100 g/ha ([1]; dose 100 g/ha)	inhibition at 25 g/ha ([2]; dose 25 g/ha)	inhibition at 50 g/ha [2]	inhibition at 100 g/ha ([2]; dose 100 g/ha)	inhibition at 50 g/ha ([3]; dose 50 g/ha)	inhibition at 12.5 g/ha ([4]; dose 12.5 g/ha)	inhibition at 50 g/ha ([5]; dose 50 g/ha)	inhibition at 20 g/ha ([6]; dose 20 g/ha)	inhibition at 100 g/ha [6]	inhibition at 30 g/ha ([7]; dose 30 g/ha)	inhibition at 50 g/ha ([6]; dose 50 g/ha)	inhibition at 300 g/ha ([6]; dose 300 g/ha)	inhibition at 12.5 g/ha ([1]; dose 12.5 g/ha)	inhibition at 150 g/ha ([2]; dose 150 g/ha)	inhibition at 300 g/ha ([2]; dose 300 g/ha)	inhibition at 12.5 g/ha ([3]; dose 12.5 g/ha)	inhibition at 25 g/ha ([4]; dose 25 g/ha)	inhibition at 125 g/ha ([7]; dose 125 g/ha)	inhibition at 25 g/ha ([5]; dose 25 g/ha)	inhibition at 200 g/ha ([5]; dose 200 g/ha)
COc1cc(OC)nc(NC(=O)NS(=O)(=O)c2ncccc2C(F)(F)F)n1 [flazasulfuron, 1-(4,6-dimethoxypyrimidin-2-yl)-3-(3-trilfuoromethyl-2-pyridylsulfony)urea]	85%	50%	60%	80%	94%	33%	70%													
COc1cc(OC)nc(NC(=O)NS(=O)(=O)c2ncccc2C(=O)N(C)C)n1 [nicosulfuron, 2-(4,6-dimethoxypyrimidin-2-ylcarbamoylsulfamoyl)-N,N-dimethylnicotinamide]								0%	10%	35%										
Cn1nc(C(F)(F)F)c(CS(=O)(=O)C2=NOC(C)(C)C2)c1OC(F)F [pyroxasulfone, 3-[5-(difluoromethoxy)-1-methyl-3-(trifluoromethyl)pyrazol-4-ylmethylsulfonyl]-4,5-dihydro-5,5-dimethyl-1,2-oxazole]			20%						70%		40%	80%	0%	30%	30%	13%	20%	90%	0%	40%
